Assay results: US20150232900A1, “PAPER FOLDING METHOD AND DEVICE FOR MANUFACTURING FILTER CARTRIDGES” (MYKO TECH PRIVATE LIMITED, priority 2012, published 2015)

What was measured:
Type in all cases: cell-based
[1] = tested on: Human Cytomegalovirus AD-169; test: Plaque forming unit (PFU) inhibition assay, Human Cytomegalovirus AD-169 in MRC5 cell line; conditions: Human Cytomegalovirus AD-169, MRC5 cells, positive control, tested 0.33-100 μM
Experimental: EPS from the thraustochytrid designated MT-5 were tested for inhibition of Cytomegalovirus. A stock solution of 20 mg/ml of the EPS was prepared by solubilizing in 10% DMSO for injection into the cell lines infected by the virus.
Various dilutions of the stock EPS were prepared in the tissue culture medium, Dulbecco ? Modified Eagle medium with 2% fetal bovine serum and antibiotics. The dilutions were: (1) 100 ? /ml; (2) 33 ? /ml; (3) 10 ? /ml; (4) 3.3 μg/ml; (5) 1.0 ? /ml; (6) 0.33 μg/ml. A plaque forming unit (PFU) inhibition assay in 6-well plates in vitro was carried out. A known concentration of cells from MRC5 cell line was used to seed 6-well or 12-well plates for 24 hours. Each of the 6 different concentrations of the EPS was then added to duplicate wells and incubated for 1 hour and then approximately 50-100 plaque forming units of the Human Cytomegalovirus AD-169 in 10 ? were added to each well. Virus was allowed to absorb to the cells for 2 hours. After the incubation the virus was removed and agarose solution with EPS at each different was added to the appropriate infected well. Plates were incubated in a 37° C. CO2 incubator for 5 days. The drug Acyclovir was kept as a positive control, at concentrations of 100, 33, 10, 3.3, 1.0 and 0.33 μM concentrations. […] Plaques were counted and numbers recorded. […]

[2] = tested on: Human Adenovirus 5; test: Plaque forming unit (PFU) inhibition assay, Human Adenovirus 5 in A549 cell line; conditions: Human Adenovirus 5, A549 cells, positive control, tested 0.33-100 μM; not at less
Experimental: EPS from two thraustochytrids, designated MT-5 and MT-6 were tested for inhibition of Adenovirus. A stock solution of 20 mg/ml of the EPS was prepared by solubilizing in 10% DMSO for injection into the cell lines infected by the virus. Various dilutions of the stock EPS were prepared in the tissue culture medium, Dulbecco ? Modified Eagle medium with 2% fetal bovine serum and antibiotics. The dilutions were: (1) 100 μg/ml; (2) 33 μg/ml; (3) 10 μg/ml; (4) 3.3 μg/ml; (5) 1.0 μg/ml; (6) 0.33 μg/ml. A plaque forming unit (PFU) inhibition assay in 6-well plates in vitro was carried out. A known concentration of cells from A549 cell line was used to seed 6-well or 12-well plates for 24 hours. Each of the 6 different concentrations of the EPS was then added to duplicate wells and incubated for 1 hour and then approximately 50-100 plaque forming units of Human Adenovirus 5 in 10 ? were added to each well. Virus was allowed to absorb to the cells for 2 hours. After the incubation the virus was removed and agarose solution with EPS at each different was added to the appropriate infected well. Plates were incubated in a 37° C. CO2 incubator for 5 days. The drug Cidofovir was kept as a positive control, at concentrations of 100, 33, 10, 3.3, 1.0 and 0.33 μM concentrations. […] Plaques were counted and numbers recorded. […]

[3] = tested on: Retrovirus XMRV (Xenotropic Murine Leukemia Virus); test: Focus forming unit (FFU) inhibition assay, Retrovirus XMRV in PG4 cell line; conditions: PG4 cells, positive control, tested 0.33-100 μM
Experimental: EPS from two thraustochytrids designated MT-5 and MT-6 were tested for inhibition of retrovirus A stock solution of 20 mg/ml of the EPS was prepared by solubilizing in 10% DMSO for injection into the cell lines infected by the virus. Various dilutions of the stock EPS were prepared in the tissue culture medium, Dulbecco ? Modified Eagle medium with 2% fetal bovine serum and antibiotics. The dilutions were: (1) 100 ? /ml; (2) 33 ? /ml; 10 ? /ml; (4) 3.3 μg/ml; (5) 1.0 μg/ml; (6) 0.33 μg/ml. A focus forming unit (FFU) inhibition assay in 6-well plates in vitro was carried out. A known concentration of cells from PG4 cell line was used to seed 6-well or 12-well plates for 24 hours. Each of the 6 different concentrations of the EPS was then added to duplicate wells and incubated for 1 hour and then approximately 50-100 focus forming units of the Retrovirus XMRV (Xenotropic Murine Leukemia Virus) in 10 ? were added to each well. Virus was allowed to absorb to the cells for 2 hours. After the incubation the virus was removed and agarose solution with EPS at each different was added to the appropriate infected well Plates were incubated in a 37° C. CO2 incubator for 5 days. The drug Tenofovir was kept as a positive control, at concentrations of 100, 33, 10, 3.3, 1.0 and 0.33 μM concentrations. At the end of incubation, cultures were fixed and stained with crystal violet to visualize the foci. […]

## Nc1nc2c(ncn2COCCO)c(=O)[nH]1 [Acyclovir]
[1]
  effective concentration (not effective at any concentration tested, up to the maximum): > 100.0 µM

## Nc1ccn(C[C@@H](CO)OCP(=O)(O)O)c(=O)n1 [Cidofovir]
[2]
  concentration that completely inhibited plaque formation: 100 µM

## C[C@H](Cn1cnc2c(N)ncnc21)OCP(=O)(O)O [Tenofovir]
[3]
  concentration above which the drug was effective (viral foci): > 10.0 µM
  concentration that completely inhibited focal formation: 100 µM
